In patent publication US20090054328A1, “Reagents and Methods for Modulating Gene Expression Related to Hypertension” (The Board of Trustees of the University of Illinois, priority 2005, published 2009):

Experiments:
[1] = test system: MLL rat prostate cancer cells; experiment: Apoptosis by FACS (annexin V and PI) in MLL cells; format: cell-based
Protocol: (§1) Mm5MT or MLL cells (200,000 cells per well) were seeded in 6-well dishes one day before drug treatment and cultured as described above.
(§2) On the day of the experiment, media was changed to DMEM supplemented with 0.5% FBS and the cells were treated with drugs as defined by the specific experimental protocol. […] At least 10,000 cells were counted per analysis and cells that stained positive for annexin V and PI were judged to be apoptotic.

[2] = test system: precancerous mammary alveolar lesions (MAL); experiment: Mouse mammary gland organ culture, DMBA-induced mammary alveolar lesions (MAL); format: cell-based
Protocol: To determine the effects of inhibiting MLCK in mammary tumors, an in vitro mammary cancer model was used as follows. Mammary glands obtained from young Balb/c mice that are exposed to 7,12-dimethylbenz(a)anhracene (DMBA) for 24 hours in culture form precancerous lesions in 24 days (Mehta et al., 2000, J Natl Cancer Instit 92:418-23). In this experiment, 70 mammary glands from 35 Balb/c mice were divided into seven groups of 10 glands each and incubated in serum-free medium containing insulin, prolactin (5 μg/ml each), aldosterone and hydrocortisone (1 μg/ml each) for 10 days. DMBA (2 μg/ml) was included in the medium for 24 hours on day 3. The glands were incubated for an additional 14 days in the absence of hormones except insulin. This allows the regression of the normal mammary alveolar structures. […] Chemopreventive agents were included in the medium during the first 10 days. The glands were fixed in formalin and stained with alum carmine and evaluated for MAL. Percent inhibition was calculated by comparing the incidence in the control glands with the treated groups.

MLC-P in Mm5MT cells = experiment: MLC-P by urea/glycerol gel-immunoblotting in Mm5MT cells; format: cell-based, mouse; conditions: 10 μM ML-7, 30 μM etoposide or both, 16 hours
Protocol: (§3) MLC-P expression was measured in the cells using urea/glycerol gel-immunoblotting as follows. […] The unphosphoryiated and phosphorylated forms of MLC20 were separated using urea/glycerol PAGE, transferred to nitrocellulose and probed with an affinity purified antibody to MLC20. This antibody recognizes the unphosphoryiated and phosphorylated forms of MLC20. Immunoreactive bands were visualized using enhanced chemiluminescence (ECL) detection reagents (Amersham Pharmacia Biotech, Piscataway, N.J.) (Fazal et al., 2005, Mol Cell Biol 25:6259-66).

MLC-P in MLL cells = experiment: MLC-P by urea/glycerol gel-immunoblotting in MLL cells; format: cell-based, rat; conditions: 5 μM ML-7, 30 μM etoposide or both
Protocol: as §3
To determine if ML-7 stimulates the ability of etoposide to induce apoptosis and retard tumor growth widely, the effects of ML-7 and etoposide on MLL prostate cancer cells were determined. In this case, pre-treated MLL cells were grown in culture with 5 μM ML-7 before adding varying concentrations of etoposide from 1 to 1000 μlM.

Mm5MT mammary tumors = conditions: for tumor growth (in words): mice, 27 mM ML-7 osmotic pump or 25 mg/kg etoposide i.p., 4 weeks, only the etoposide effect statistically significant; for tolerability on physical examination: mouse, in vivo
Protocol: To investigate the anticancer activity of ML-7 in vivo, Mm5MT cells were injected into the right flanks of female mice as follows. Mm5MT cells grown in culture were harvested immediately before injection into syngeneic MMTV-C3H/HeM mice. Cells were washed to remove serum and 10^6 cells were resuspended in 100 μl of serum-free DMEM. Healthy, MMTV-free female mice (14-20 weeks old) were anesthetized with ether and 10^6 cells were injected subcutaneously into the right flank. The mice were randomly divided into four groups of five mice, each, and treated with vehicle, ML-7, etoposide or ML-7 plus etoposide. Drug administration was started 1 week after the cells were injected. To deliver ML-7, a small horizontal incision was made in the interscapular area and a 200 μl osmotic pump (Alzet, Cupertino, Calif.) filled with either 27 mM ML-7 in 50% DMSO or 50% DMSO (vehicle control) was implanted and the wound closed. […] When given, 25 mg/kg etoposide was injected intraperitoneally on the first 3 days of every week for 4 weeks (days 7-9, 14-16, 21-23 and 28-30) (Nakamura el al 2003, Cancer Sci 94:119-24). The mice were sacrificed with ether after 4 weeks of drug administration and tumors were removed, weighed and processed for analysis.
Histological analysis of the tumors was conducted as follows. The excised tumours were gently patted dry and weighed using a Mettler digital balance. Tumors were then sectioned into 2 mm slices, fixed in 10% neutral buffered formalin, routinely processed and embedded in paraffin. […] Photomicrographs documenting the entire section were collected and areas of necrotic and viable tumor were determined using the manual tracing tools within MetaMorph 6.2 (Universal Imaging Corporation, Downingtown, Pa.).

MLL prostate tumors = MLL prostate tumors in Copenhagen rats; format: in vivo, rat; conditions: for TUNEL positive nuclei in tumors: 300 cells from randomly chosen fields, control 19.2%
Protocol: To test the anticancer effect of ML-7 in a rat prostate cancer model as follows. MLL cells grown in culture as described above were harvested and washed in serum-free Hank's buffer. The cells were suspended in 500 μl serum-free Hank's and 10^6 cells were injected subcutaneously into the right flank of 12-week old male Copenhagen rats anesthetized with ether. […] The rats were randomly divided into four groups, five in each group. The rats received injections of ML-7 or vehicle via the jugular vein every 4 days for 2 weeks. ML-7 was used at the dose of 35 mg/kg. Etoposide was injected intraperitoneal injection (IP) at the maximum tolerant dose of 50 mg/m^2 daily (Muenchen et al., 2000, Anticancer Res 20:735-40), The rats were sacrificed with ether 14 days after the start of drug treatment. The tumors were removed, weighed and processed as described above.
Tumor sections were also examined for apotosis using TUNEL staining Sections were deparaffinized and rehydrated according to standard protocol. Tissue sections were permeabilized by placing slides in 10 mM citrate buffer (pH 6.0) and applying 350W microwave irradiation for 5 min. Tissue sections were then stained with TMR Red-labelled terminal deoxynucleotidyl transferase dUTP nick-end labeling (TUNEL) enzyme reagent using the In Situ Cell Death Detection kit (Roche Molecular Biochemicals, Indianapolis, Ind.) as described by the manufacturer. Sections stained with the labeling solution without the terminal transferase were used as negative control. Tissue sections were finally mounted using Vectashield containing DAPI and examined using a Zeiss LSM 510 laser confocal microscope.

SHR = experiment: Systolic blood pressure (tail-cuff) in SHR, drug given continuously for 3 weeks by osmotic pump; format: in vivo, rat; conditions: SHR 16 weeks old at start; osmotic pump, continuous 3 weeks; vehicle 221.6
Protocol: The importance of regulating MLCK expression by Ras signaling in vivo was further investigated by treating SHR with U0126 continuously for 3 weeks. U0126 is a specific inhibitor MEK (Favata et al., 1998J. Biol. Chem. 273: 18623-18632), an upstream regulator of ERK in the Ras signaling pathway (Chien & Hoshijima, 2002, Id.). […] In these experiments, Systolic blood pressure (SBP) was measured using tail-cuff sphygmomanometry (IITC Incorporated/Life Sciences Institute, Woodland Hills Calif.). Drugs were delivered via an osmotic pump (DURECT Corporation, Cupertino, Calif.) implanted subcutaneously in the shoulder. The pumps (having a 2 mL capacity at a delivery rate of 2.45 μL/hour) were filled with 13.5 mM U0126 (BIOMOL Research Laboratories, Plymouth Meeting, Pa.) dissolved in 50% DMSO or vehicle alone. Three weeks later, rats were sacrificed and aortas were removed. Some vessels were processed for histology, while other tissue was immediately placed in ice-cold acetone containing 10% trichloroacetic acid (TCA) and 10 mM dithiothreitol (DTT). Endothelial cells were removed by gently rubbing the inside of the vessels with a cell lifter and connective tissue was removed by dissection. The cleaned vessels were then frozen on dry ice and stored at −80° C. for biochemical analysis.
Another experiment was conducted to determine if inhibiting Ras signaling could decrease blood pressure in SHR.

[3] = test system: Mm5MT mouse mammary cancer cells; experiment: Apoptosis by FACS (annexin V and PI) in Mm5MT cells; format: cell-based
Protocol: as §1, §2
The cells were then treated with trypsin, washed twice with cold PBS and re-suspended in 100 μl of buffer containing 10 mM Hepes, pH 7.4, 140 mM NaCl and 2.5 mM CaCl2 (binding buffer). Then, 5 μl of FITC-conjugated annexin V (Pharmingen, San Diego, Calif.) and 10 μl of propidium iodide (PI) (50 μg/ml) were added and cells were incubated in the dark at room temperature for 15 min.

smooth muscle cells = conditions: cited from earlier work

COc1cc([C@@H]2c3cc4c(cc3[C@@H](O[C@@H]3O[C@@H]5CO[C@@H](C)O[C@H]5[C@H](O)[C@H]3O)[C@H]3COC(=O)[C@H]23)OCO4)cc(OC)c1O [etoposide]
EC50 ([1]; Rattus norvegicus, with ML-7 (5 μM pretreatment), read-out: concentration of etoposide required for inducing apoptosis in 50% of the cells): 68 µM
inhibition of MAL development ([2]; 0.1 μM, compared to control): did not affect
inhibition of the incidence of lesion formation ([2]; 1 and 10 μM, compared to control): 40-46%
MLC-P (MLC-P in Mm5MT cells): decreased
MLC-P (MLC-P in MLL cells): smaller decrease
tumor growth (in words) (Mm5MT mammary tumors): decreased
tolerability on physical examination (Mm5MT mammary tumors): tolerated these drugs without visible signs of discomfort
TUNEL positive nuclei in tumors (MLL prostate tumors): 35.8%

O=S(=O)(c1cccc2c(I)cccc12)N1CCCNCC1 [ML-7]
systolic blood pressure at the end of the 3-week treatment period (SHR): 165.0±3.9 mmHg
apoptosis by ML-7 by itself ([3]; 10 μM ML-7, 0 etoposide): significantly increased
apoptotic cells (annexin V and PI positive) ([3]; 5-25 μM ML-7, 16 h): dose-dependent increase
apoptotic cells (annexin V and PI positive) ([1]; 5-25 μM ML-7, 16 h): dose-dependent increase
inhibition of MAL development ([2]; 0.1 μM, compared to control): 40%
inhibition of MAL development ([2]; 1 μM, compared to a 70% incidence in the control glands): 58%
MLC-P (MLC-P in Mm5MT cells): decreased
MLC-P (MLC-P in MLL cells): decreased
tumor growth (in words) (Mm5MT mammary tumors): decreased
tolerability on physical examination (Mm5MT mammary tumors): tolerated these drugs without visible signs of discomfort
TUNEL positive nuclei in tumors (MLL prostate tumors): 40,6%
decrease in tumor weight (MLL prostate tumors; Copenhagen rats, ML-7 35 mg/kg every 4 days, etoposide 50 mg/m^2 daily IP, 14 days, vs. vehicle control): 29.6%
apoptosis in smooth muscle cells (smooth muscle cells): induces apoptosis
